# Measured values as given in patent US8637496B2, “Compounds having a monogalactosyldiacylglycerol synthase inhibitory activity as herbicide or algaecide, herbicide and algaecide compositions” (Commissariat a l'Energie Atomique, priority 2007, dated 2014).
# Where a name gives a salt, the structure may show the parent alone.
# Biological target: T1, MGDG synthase in isolated spinach chloroplast envelope membranes (Spinacia oleracea, UniProt Q9SM44)
# T1 construct: envelope membranes purified from the lysate by sucrose centrifugation gradient; from tissue; host or cells: envelope membranes of chloroplasts from spinach leaves
# T1 sequence (Q9SM44 99-522): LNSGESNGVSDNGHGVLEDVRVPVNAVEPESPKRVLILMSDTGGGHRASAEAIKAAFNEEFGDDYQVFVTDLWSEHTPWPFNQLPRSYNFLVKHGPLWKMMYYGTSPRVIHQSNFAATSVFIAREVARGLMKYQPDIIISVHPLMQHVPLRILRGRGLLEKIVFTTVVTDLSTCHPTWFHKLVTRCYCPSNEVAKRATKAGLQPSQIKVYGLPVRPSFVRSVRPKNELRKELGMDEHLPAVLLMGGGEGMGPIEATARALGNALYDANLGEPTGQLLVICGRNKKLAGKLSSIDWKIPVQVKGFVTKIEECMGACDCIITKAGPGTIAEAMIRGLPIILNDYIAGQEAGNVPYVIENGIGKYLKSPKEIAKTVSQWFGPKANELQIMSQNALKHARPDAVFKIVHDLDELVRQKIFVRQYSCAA
# Assay: MGDG synthase activity in envelope membrane fractions isolated from spinach chloroplasts
# Type: biochemical
# Conditions: Table 1, obtained in the same manner as FIG. 4; read-out: Inhibitory effect on MGDG synthesis in isolated spinach chloroplast envelope membranes
# Source text: All the operations have been carried out as described in the article by Maréchal, E. et al., J. Biol. Chem., 1995, 270, 5714-5722. Crude chloroplasts were obtained from 3-4 kg of spinach leaves and purified by isopycnic centrifugation using Percoll gradients. Purified intact chloroplasts have then been lysed in hypotonic medium and envelope membranes purified from the lysate by sucrose centrifugation gradient as described in the article by Douce, R. and Joyard, J., (1982) in Methods in Chloroplast Molecular Biology (Edelman, M., Hallick R and Chua N H eds), pp 239-256, Elsevier Science Publishers B.V. Amsterdam.
# MGDG synthase activity was assayed as described in the article by Maréchal et al. (1995).
row,Structure (SMILES),IC50 [µM]
1,"O=C(OCCN(Cc1ccccc1)Cc1ccccc1)N1CCC(n2c(=O)[nH]c3ccccc32)CC1 [Compound 11, 2-(dibenzylamino)ethyl 4-(1,2-dihydro-2-oxobenzo[d]imidazol-3-yl)piperidine-1-carboxylate]",15
2,"O=C(OC1CN(C(c2ccccc2)c2ccccc2)C1)N1CCC(n2c(=O)[nH]c3ccccc32)CC1 [Compound 13, 1-benzhydrylazetidin-3-yl 4-(1,2-dihydro-2-oxobenzo[d]imidazol-3-yl)piperidine-1-carboxylate]",100 to 500
3,"O=c1[nH]c2ccccc2n1C1CCN(C(=S)OCCOCc2ccccc2)CC1 [Compound 20, O-2-(benzyloxy)ethyl 4-(1,2-dihydro-2-oxobenzo[d]imidazol-3-yl)piperidine-1-carbothioate]",100 to 500
4,"COc1cccc(CN(CCCOC(=O)N2CCC(n3c(=O)[nH]c4ccccc43)CC2)Cc2ccccc2)c1 [Compound 68, 3-(benzyl(3-methoxybenzyl)amino)propyl 4-(2-oxo-2,3-dihydro-1H-benzo[d]imidazol-1-yl)piperidine-1-carboxylate hydrochloride]",80
5,"O=C(OCCCN(Cc1ccccc1)Cc1cccc(Cl)c1)N1CCC(n2c(=O)[nH]c3ccccc32)CC1 [Compound 69, 3-(benzyl(3-chlorobenzyl)amino)propyl 4-(2-oxo-2,3-dihydro-1H-benzo[d]imidazol-1-yl)piperidine-1-carboxylate hydrochloride]",30
6,"O=C(OCCCN(Cc1ccccc1)Cc1cccc2ccccc12)N1CCC(n2c(=O)[nH]c3ccccc32)CC1 [Compound 70, 3-(benzyl(naphthalen-1-ylmethyl)amino)propyl 4-(2-oxo-2,3-dihydro-1H-benzo[d]imidazol-1-yl)piperidine-1-carboxylate hydrochloride]",60
7,"O=C(OCCCN(Cc1ccccc1)Cc1ccnc2ccccc12)N1CCC(n2c(=O)[nH]c3ccccc32)CC1 [Compound 71, 3-(benzyl(quinolin-4-ylmethyl)amino)propyl 4-(2-oxo-2,3-dihydro-1H-benzo[d]imidazol-1-yl)piperidine-1-carboxylate hydrochloride]",50
8,"Cn1c(CN(CCCOC(=O)N2CCC(n3c(=O)[nH]c4ccccc43)CC2)Cc2ccccc2)cc2ccccc21 [Compound 72, 3-(benzyl((1-methyl-1H-indol-2-yl)methyl)amino)propyl 4-(2-oxo-2,3-dihydro-1H-benzo[d]imidazol-1-yl)piperidine-1-carboxylate hydrochloride]",50
9,"O=C(OCCCN(Cc1ccccc1)Cc1ccoc1)N1CCC(n2c(=O)[nH]c3ccccc32)CC1 [Compound 80, 3-(benzyl(furan-3-ylmethyl)amino)propyl 4-(2-oxo-2,3-dihydro-1H-benzo[d]imidazol-1-yl)piperidine-1-carboxylate]",50
10,"CC(C)C[C@@H](COC(=O)N1CCC(n2c(=O)[nH]c3ccccc32)CC1)N(Cc1ccccc1)C(=O)OC(C)(C)C [Compound 85, (S)-2-(benzyl(tert-butoxycarbonyl)amino)-4-methylpentyl 4-(2-oxo-2,3-dihydro-1H-benzo[d]imidazol-1-yl)piperidine-1-carboxylate]",10
11,"CC(C)(C)OC(=O)N(Cc1ccccc1)[C@H](COC(=O)N1CCC(n2c(=O)[nH]c3ccccc32)CC1)Cc1ccccc1 [Compound 86, (S)-2-(benzyl(tert-butoxycarbonyl)amino)-3-phenylpropyl 4-(2-oxo-2,3-dihydro-1H-benzo[d]imidazol-1-yl)piperidine-1-carboxylate]",5

# The remaining lines, values ahead:
row,IC50 [µM],Structure (SMILES)
1,15,"O=C(OCCCN(Cc1ccccc1)Cc1cccc(Oc2ccccc2)c1)N1CCC(n2c(=O)[nH]c3ccccc32)CC1 [Compound 73, 3-(benzyl(3-phenoxybenzyl)amino)propyl 4-(2-oxo-2,3-dihydro-1H-benzo[d]imidazol-1-yl)piperidine-1-carboxylate hydrochloride]"
2,8,"O=C(OCCN(Cc1ccccc1)Cc1ccc(Cl)cc1)N1CCC(n2c(=O)[nH]c3ccccc32)CC1 [Compound 74, 2-(benzyl(4-chlorobenzyl)amino)ethyl 4-(2-oxo-2,3-dihydro-1H-benzo[d]imidazol-1-yl)piperidine-1-carboxylate]"
3,10,"COc1ccccc1CN(CCOC(=O)N1CCC(n2c(=O)[nH]c3ccccc32)CC1)Cc1ccccc1 [Compound 75, 2-(benzyl(2-methoxybenzyl)amino)ethyl 4-(2-oxo-2,3-dihydro-1H-benzo[d]imidazol-1-yl)piperidine-1-carboxylate]"
4,20,"O=C(OCCN(Cc1ccccc1)Cc1ccccc1OCc1ccccc1)N1CCC(n2c(=O)[nH]c3ccccc32)CC1 [Compound 76, 2-(benzyl(2-(benzyloxy)benzyl)amino)ethyl 4-(2-oxo-2,3-dihydro-1H-benzo[d]imidazol-1-yl)piperidine-1-carboxylate]"
5,30,"O=C(OCCN(Cc1ccccc1)Cc1ccc(OCc2ccccc2)cc1)N1CCC(n2c(=O)[nH]c3ccccc32)CC1 [Compound 77, 2-(benzyl(4-(benzyloxy)benzyl)amino)ethyl 4-(2-oxo-2,3-dihydro-1H-benzo[d]imidazol-1-yl)piperidine-1-carboxylate]"
6,8,"O=C(OCCN(Cc1ccccc1)Cc1c(F)cccc1F)N1CCC(n2c(=O)[nH]c3ccccc32)CC1 [Compound 78, 2-(benzyl(2,6-difluorobenzyl)amino)ethyl 4-(2-oxo-2,3-dihydro-1H-benzo[d]imidazol-1-yl)piperidine-1-carboxylate]"
7,25,"C[C@@H](COC(=O)N1CCC(n2c(=O)[nH]c3ccccc32)CC1)N(Cc1ccccc1)Cc1ccco1 [Compound 79, (S)-2-(benzyl(furan-2-ylmethyl)amino)propyl 4-(2-oxo-2,3-dihydro-1H-benzo[d]imidazol-1-yl)piperidine-1-carboxylate]"
8,8,"O=C(OCCN(Cc1ccccc1)Cc1cccc(OCc2ccccc2)c1)N1CCC(n2c(=O)[nH]c3ccccc32)CC1 [Compound 81, 2-(benzyl(3-(benzyloxy)benzyl)amino)ethyl 4-(2-oxo-2,3-dihydro-1H-benzo[d]imidazol-1-yl)piperidine-1-carboxylate]"
9,50,"O=C(OCCN(C/C=C/c1ccccc1)Cc1ccccc1)N1CCC(n2c(=O)[nH]c3ccccc32)CC1 [Compound 82, (E)-2-(benzyl(cinnamyl)amino)ethyl 4-(2-oxo-2,3-dihydro-1H-benzo[d]imidazol-1-yl)piperidine-1-carboxylate]"
10,12,"O=C(OCCCN(Cc1ccccc1)Cc1ccc(Cl)cc1)N1CCC(n2c(=O)[nH]c3ccccc32)CC1 [Compound 83, 3-(benzyl(4-chlorobenzyl)amino)propyl 4-(2-oxo-2,3-dihydro-1H-benzo[d]imidazol-1-yl)piperidine-1-carboxylate]"
11,45,"O=C(OCCCN(Cc1ccccc1)Cc1cccc(OCc2ccccc2)c1)N1CCC(n2c(=O)[nH]c3ccccc32)CC1 [Compound 84, 3-(benzyl(3-(benzyloxy)benzyl)amino)propyl 4-(2-oxo-2,3-dihydro-1H-benzo[d]imidazol-1-yl)piperidine-1-carboxylate]"
12,45,"CC(C)C[C@@H](COC(=O)N1CCC(n2c(=O)[nH]c3ccccc32)CC1)NCc1ccccc1 [Compound 87, (S)-2-(benzylamino)-4-methylpentyl 4-(2-oxo-2,3-dihydro-1H-benzo[d]imidazol-1-yl)piperidine-1-carboxylate]"
13,60,"O=C(OCC(Cc1ccccc1)NCc1ccccc1)N1CCC(n2c(=O)[nH]c3ccccc32)CC1 (stereo not shown) [Compound 88, 2-(benzylamino)-3-phenylpropyl 4-(2-oxo-2,3-dihydro-1H-benzo[d]imidazol-1-yl)piperidine-1-carboxylate]"
14,40,"CC(COC(=O)N1CCC(n2c(=O)[nH]c3ccccc32)CC1)N(CCCOCc1ccccc1)Cc1ccccc1 (stereo not shown) [Compound 89, 2-(benzyl(3-(benzyloxy)propyl)amino)propyl 4-(2-oxo-2,3-dihydro-1H-benzo[d]imidazol-1-yl)piperidine-1-carboxylate]"

# Tested on: Chlamydomonas reinhardtii
# Assay: Chlamydomonas reinhardtii growth assay
# Type: cell-based
# Conditions: day three (d=3)
# Protocol: An axenic suspension of Chlamydomonas reinhardtii (10 μl) is introduced in a liquid TAP medium (Tris-Acetate-Phosphate medium, as described by Rochaix et al., (The Molecular Biology of Chloroplasts and Mitochondria in Chlamydomeonas; Advances in Photosynthesis, (1998) Vol. 7. Kluwer Academic Publishers, Dordrecht, The Netherlands) with or without compound according to the invention. The compounds to be tested have been solubilized in dimethylsulfoxide (DMSO) and supplied directly in the growth medium, at concentrations ranging from 0 to 200 μM. Final concentration of DMSO in medium was 10%. Chlamydomonas suspensions were then grown at 20° C., under continuous light (50 μE.m^−2.s^−1). Growth was assessed by counting the algae in a 40 μl aliquot using a Malassez cell and examining the cell vitality by standard microscopic methods.
# Control herbicide is Triclosan.
row,Structure (SMILES),morphology of Chlamydomonas when incubated with compound (FIG. 6)
1,"O=C(OCCN(Cc1ccccc1)Cc1ccccc1)N1CCC(n2c(=O)[nH]c3ccccc32)CC1 [Compound 11, 2-(dibenzylamino)ethyl 4-(1,2-dihydro-2-oxobenzo[d]imidazol-3-yl)piperidine-1-carboxylate]",fails to divide
2,"O=C(OC1CN(C(c2ccccc2)c2ccccc2)C1)N1CCC(n2c(=O)[nH]c3ccccc32)CC1 [Compound 13, 1-benzhydrylazetidin-3-yl 4-(1,2-dihydro-2-oxobenzo[d]imidazol-3-yl)piperidine-1-carboxylate]",fails to divide
3,"O=c1[nH]c2ccccc2n1C1CCN(C(=S)OCCOCc2ccccc2)CC1 [Compound 20, O-2-(benzyloxy)ethyl 4-(1,2-dihydro-2-oxobenzo[d]imidazol-3-yl)piperidine-1-carbothioate]",fails to divide
